In ChEMBL document CHEMBL3612037, “Design and synthesis of some new pyrazolyl-pyrazolines as potential anti-inflammatory, analgesic and antibacterial agents” (Eur J Med Chem, 2015):
The source made the active and inactive calls. The rule behind the calls is not given here.

Columns and labels:
[1] = tested on: Rattus norvegicus; experiment: Analgesic activity in Wistar rat assessed as tail flick latency time at 50 mg/kg, po measured 0 mins post dose by tail flick method (reference value: 3.5 +/- 0.8 secs); type: functional
[2] = tested on: Rattus norvegicus; experiment: Anti-inflammatory activity in Wistar rat assessed as inhibition of carrageenan-induced paw oedema at 50 mg/kg, po dosed 30 mins before carrageenan challenge and measured 60 mins post carrageenan challenge; type: functional
[3] = tested on: Rattus norvegicus; experiment: Anti-inflammatory activity in Wistar rat assessed as inhibition of carrageenan-induced paw oedema at 50 mg/kg, po dosed 30 mins before carrageenan challenge and measured 30 mins post carrageenan challenge; type: functional
[4] = tested on: Staphylococcus aureus; experiment: Antimicrobial activity against Staphylococcus aureus at 20 uL of 1 mg/ml by disc diffusion assay; type: functional; conditions: for zone of inhibition at 1000 µg/mL: read-out: IZ
[5] = tested on: Rattus norvegicus; experiment: Analgesic activity in Wistar rat assessed as tail flick latency time at 50 mg/kg, po measured 90 mins post dose by tail flick method (reference value: 3.7 +/- 0.1 secs); type: functional
[6] = tested on: Mus musculus; experiment: Acute toxicity in Swiss mouse assessed as induction of depression incidence at 100 to 1000 mg/kg, po measured 48 hrs post dose; type: organism-based; conditions: in vivo
[7] = tested on: Escherichia coli; experiment: Antimicrobial activity against Escherichia coli at 20 uL of 1 mg/ml by disc diffusion assay; type: functional; conditions: for zone of inhibition at 1000 µg/mL: read-out: IZ
[8] = Acute toxicity in Swiss mouse at 100 to 1000 mg/kg, po measured 48 hrs post dose; type: organism-based; conditions: in vivo
[9] = tested on: Rattus norvegicus; experiment: Analgesic activity in Wistar rat assessed as tail flick latency time at 50 mg/kg, po measured 60 mins post dose by tail flick method (reference value: 3.47 +/- 0.1 secs); type: functional
[10] = tested on: Rattus norvegicus; experiment: Anti-inflammatory activity in Wistar rat assessed as inhibition of carrageenan-induced paw oedema at 50 mg/kg, po dosed 30 mins before carrageenan challenge and measured 120 mins post carrageenan challenge; type: functional
[11] = tested on: Mus musculus; experiment: Acute toxicity in Swiss mouse assessed as induction of diarrhoea incidence at 100 to 1000 mg/kg, po measured 48 hrs post dose; type: organism-based; conditions: in vivo
[12] = tested on: Staphylococcus; experiment: Antimicrobial activity against Staphylococcus citreus at 20 uL of 1 mg/ml by disc diffusion assay; type: functional; conditions: for zone of inhibition at 1000 µg/mL: read-out: IZ
[13] = tested on: Rattus norvegicus; experiment: Analgesic activity in Wistar rat assessed as tail flick latency time at 50 mg/kg, po measured 30 mins post dose by tail flick method (reference value: 3.46 +/- 0.1 secs); type: functional
[14] = tested on: Aeromonas hydrophila; experiment: Antimicrobial activity against Aeromonas hydrophila at 20 uL of 1 mg/ml by disc diffusion assay; type: functional; conditions: for zone of inhibition at 1000 µg/mL: read-out: IZ

SMILES | Time [1] [s] | inhibition in vivo at 50 mg/kg [2] [%] | inhibition in vivo at 50 mg/kg [3] [%] | zone of inhibition at 1000 µg/mL [4] [mm] | Time [5] [s] | Activity [6] | zone of inhibition at 1000 µg/mL [7] [mm] | LD50 at 48 h [8] [mg/kg] | Time [9] [s] | inhibition in vivo at 50 mg/kg [10] [%] | Activity [11] | inhibition zone (IZ) [12] | Time [13] [s] | inhibition zone (IZ) [14] | zone of inhibition at 1000 µg/mL [14] [mm] | inhibition zone (IZ) [7] | zone of inhibition at 1000 µg/mL [12] [mm] | inhibition zone (IZ) [4]
CCC(=O)N1N=C(c2ccc(C)cc2)CC1c1cn(-c2ccccc2)nc1-c1ccc(Cl)c(Cl)c1 (stereo not drawn) | 3.3 | 61.1 | 29.8 | 24 | 5.9 | Non-toxic | 22 | 500 | 6.4 | 70.3 | Non-toxic | inactive | 5.3 | inactive |  |  |  | 
Cc1ccc(C2=NNC(c3cn(-c4ccccc4)nc3-c3ccc(Cl)c(Cl)c3)C2)cc1 (stereo not drawn) | 3.6 | 56.5 | 38.3 | 19 | 6.5 | Non-toxic | 15 | 500 | 6.3 | 48.4 | Non-toxic | inactive | 5.9 |  | 11 |  |  | 
O=CN1N=C(c2ccc(Cl)cc2)CC1c1cn(-c2ccccc2)nc1-c1ccc(Cl)c(Cl)c1 (stereo not drawn) | 3 | 51.1 | 35.1 | 18 | 4.3 | Non-toxic |  | 500 | 4.7 | 57.8 | Non-toxic |  | 4.5 | inactive |  | inactive | 21 | 
Fc1ccc(C2=NNC(c3cn(-c4ccccc4)nc3-c3ccc(Cl)c(Cl)c3)C2)cc1 (stereo not drawn) | 3.1 | 40.5 | 45.7 | 14 | 4.2 | Non-toxic |  | 500 | 4.8 | 46.1 | Non-toxic |  | 4.5 |  | 16 | inactive | 23 | 
Cc1ccc(C2=NN(c3ccc([N+](=O)[O-])cc3)C(c3cn(-c4ccccc4)nc3-c3ccc(Cl)c(Cl)c3)C2)cc1 (stereo not drawn) | 3.4 | 72.5 | 57.4 | 21 | 6.6 | Non-toxic | 16 | 500 | 7.4 | 71.9 | Non-toxic |  | 7 |  | 19 |  | 16 | 
CC(=O)N1N=C(c2ccc(F)cc2)CC1c1cn(-c2ccccc2)nc1-c1ccc(Cl)c(Cl)c1 (stereo not drawn) | 3.5 | 59.5 | 45.7 |  | 6.6 | Non-toxic | 12 | 500 | 6.5 | 72.7 | Non-toxic | inactive | 6.8 |  | 19 |  |  | inactive
Cc1ccc(C2=NN(C=O)C(c3cn(-c4ccccc4)nc3-c3ccc(Cl)c(Cl)c3)C2)cc1 (stereo not drawn) | 3.4 | 53.4 | 35.1 |  | 4.4 | Non-toxic | 20 | 500 | 4.6 | 60.9 | Non-toxic |  | 4.7 | inactive |  |  | 16 | inactive
CC(=O)N1N=C(c2ccc(Cl)cc2)CC1c1cn(-c2ccccc2)nc1-c1ccc(Cl)c(Cl)c1 (stereo not drawn) | 3.5 | 57.2 | 45.7 | 21 | 5.1 | Non-toxic |  | 500 | 5.9 | 66.4 | Non-toxic |  | 5.5 |  | 19 | inactive | 13 | 
O=[N+]([O-])c1ccc(N2N=C(c3ccc(Cl)cc3)CC2c2cn(-c3ccccc3)nc2-c2ccc(Cl)c(Cl)c2)cc1 (stereo not drawn) | 3.4 | 57.2 | 48.9 | 22 | 6.6 | Non-toxic | 31 | 500 | 7 | 69.5 | Non-toxic |  | 6.9 |  | 21 |  | 18 | 
CC(=O)N1N=C(c2ccc(C)cc2)CC1c1cn(-c2ccccc2)nc1-c1ccc(Cl)c(Cl)c1 (stereo not drawn) | 3.5 | 59.5 | 27.6 | 19 | 5.5 | Non-toxic | 18 | 500 | 5.5 | 70.3 | Non-toxic | inactive | 5.3 | inactive |  |  |  | 
O=CN1N=C(c2ccc(F)cc2)CC1c1cn(-c2ccccc2)nc1-c1ccc(Cl)c(Cl)c1 (stereo not drawn) | 3.5 | 56.5 | 37.2 | 13 | 6.6 | Non-toxic | 12 | 500 | 6.4 | 60.9 | Non-toxic |  | 6.3 |  | 10 |  | 18 | 
O=[N+]([O-])c1ccc(N2N=C(c3ccc(F)cc3)CC2c2cn(-c3ccccc3)nc2-c2ccc(Cl)c(Cl)c2)cc1 (stereo not drawn) | 3.8 | 60.3 | 45.7 | 20 | 5.2 | Non-toxic |  | 500 | 5.7 | 65.6 | Non-toxic |  | 5.1 | inactive |  | inactive | 21 | 
